Publication PMC7334220, “Diamond Blackfan anemia is mediated by hyperactive Nemo-like kinase” (Nature Communications, 2020)

Assays:
[1] = tested on: RPL11-insufficient cord blood CD34+ HSPCs; assay: In vitro differentiation of cord blood CD34+ HSPCs transduced with shRNA against RPL11; format: cell-based; details: Homo sapiens, 360 h; read-out: erythroid expansion in RPL11-insufficiency, % of control
Source text: Fig. 8 NLK inhibition increases expansion of erythroid progenitors from human and murine models of DBA. a Human cord blood CD34^+ progenitors were transduced with lentivirus co-expressing GFP with shRNA against luciferase (shLuc), RPS19 (shRPS19), or RPL11 (shRPL11). […] Cells were counted and assessed for cell surface expression of CD235. b Lin-Kit^+ hematopoietic progenitors were obtained from three mouse embryos expressing tetracycline-inducible shRNA against RPS19 at day E14.5 or three untreated mice, and thee mature RPL11^+/+ or three mature RPL11^+/lox mice treated with tamoxifen for eight weeks. […] Values were expressed as a percentage relative to untreated controls. c, d Intracellular phosphorylation of NLK at Thr298 was determined by capillary electrophoresis using the Peggy Sue™ Automated Western blotting platform. After lysis, 4 µg of protein from the CD235^+ population was probed against pThr298-NLK and normalized to GAPDH. […] After counting the total cell population, the ratio of CD235^+ erythroblasts was determined by flow cytometry and number of CD235^+ erythroblasts calculated. This was expressed as a percentage of the average number of erythroid cells present in untreated healthy controls. f NLK phosphorylation was assessed by capillary electrophoresis as above. Bars represent means ± SD with individual data points overlaid. […]

[2] = tested on: ribosome-competent cord blood CD34+ HSPCs (shLuc); assay: In vitro differentiation of cord blood CD34+ HSPCs transduced with control shRNA (luciferase); format: cell-based, human
Method: Lin-Kit^+ fetal liver cells were obtained from mouse embryos expressing tet-on shRNA against RPS19, at day E14.5-15.5. Cells were plated at 2000 cell per well in 96-well plates in the presence or absence of doxycycline. Relative amounts of live cells were quantified by luciferase-based Cell titer-Glo® assay. b TGFβR1 inhibitors were assessed for their ability to increase cell expansion in RPS19-insuffiency. As a control, vehicle alone (no doxycycline) is represented at the far left while all other samples were treated with doxycycline to induce RPS19-insufficiency. c Kit^+ erythroid progenitors were grown in the absence of doxycycline and in the presence of 10 µM of indicated compound. In addition, cells were treated with 5 ng/ml of TGFβ1 for 5 days before being subjected to Cell titer-Glo® assay. d Differentiating cord blood CD34^+ progenitors were transduced with shRNA against luciferase or RPS19 and treated with inhibitors at working concentrations for TGFβ inhibition every three days. […] Cells were counted and CD235^+ erythroid (i and iii) and CD11b^+ myeloid cell (ii and iv) percentages were determined by flow cytometry. The number of erythroid or myeloid cells is expressed as a percentage of the number of that lineage with no cytokine or drug treatment. […]
Fig. 8 NLK inhibition increases expansion of erythroid progenitors from human and murine models of DBA. a Human cord blood CD34^+ progenitors were transduced with lentivirus co-expressing GFP with shRNA against luciferase (shLuc), RPS19 (shRPS19), or RPL11 (shRPL11). […] Cells were counted and assessed for cell surface expression of CD235. b Lin-Kit^+ hematopoietic progenitors were obtained from three mouse embryos expressing tetracycline-inducible shRNA against RPS19 at day E14.5 or three untreated mice, and thee mature RPL11^+/+ or three mature RPL11^+/lox mice treated with tamoxifen for eight weeks. […] Values were expressed as a percentage relative to untreated controls. c, d Intracellular phosphorylation of NLK at Thr298 was determined by capillary electrophoresis using the Peggy Sue™ Automated Western blotting platform. […]

Fc1ccc(Cl)cc1-c1nc(Nc2ccncc2)c2nccnc2n1 [SD208]
activity at 5 µM [1]: 36.7%
activity at 5 µM ([2]; Homo sapiens, 360 h, read-out: erythroid expansion of HSPCs transduced with control shRNA, % of control): ~105%
restoration of erythroid and myeloid expansion of TGFβ-treated cells ([2]; ribosome-competent cells, 5 ng/ml TGFβ1, 5 µM compound, 15 days, Fig. 1e): restored
